What was measured:
[1] = target: T1, recombinant human DGAT1 (hDGAT1) (Homo sapiens, UniProt O75907); test: Membrane-based recombinant hDGAT1 inhibitory activity using radiometry method (Method B); type: biochemical; settings: values marked *: Method B (radiometry); Sf9 membranes expressing hDGAT1
T1 construct: host or cells: Sf9 insect cells (baculovirus expression system), used as membrane preparation
T1 sequence (O75907 1-488): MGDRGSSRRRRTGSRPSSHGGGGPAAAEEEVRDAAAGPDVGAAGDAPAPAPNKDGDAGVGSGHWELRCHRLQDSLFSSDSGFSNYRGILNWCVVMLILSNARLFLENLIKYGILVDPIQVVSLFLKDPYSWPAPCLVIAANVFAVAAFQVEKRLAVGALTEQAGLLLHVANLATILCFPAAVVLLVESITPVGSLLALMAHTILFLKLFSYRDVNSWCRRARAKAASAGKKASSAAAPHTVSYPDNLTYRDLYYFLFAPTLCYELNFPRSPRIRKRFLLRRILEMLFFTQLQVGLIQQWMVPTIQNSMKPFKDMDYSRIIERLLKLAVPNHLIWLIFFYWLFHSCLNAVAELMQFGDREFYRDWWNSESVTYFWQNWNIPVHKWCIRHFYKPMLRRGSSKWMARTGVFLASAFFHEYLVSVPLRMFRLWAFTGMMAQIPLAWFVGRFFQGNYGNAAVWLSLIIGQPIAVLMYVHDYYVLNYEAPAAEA
Method: Measurement of Membrane-Based Recombinant hDGAT1 Inhibitory Activity Using Radiometry Method (Method B):
The determination of recombinant human DGAT1 (hDGAT1) activity was carried out using a Radiometry based assay system based on literature report [European Journal of Medicinal Chemistry (2012), August; 54:324-42]. In brief, baculovirus expression system (Sf9) membranes expressing hDGAT1 were employed for the membrane based assay.
Radiometry hDGAT1 assays were performed using 1 μg of the hDGAT1, pre-incubated with 100 μl of the assay buffer [100 mM Tris-HCl (pH 7.5), 250 mM sucrose, and 1.25 mg/ml fatty acid free BSA] containing a known concentration of the inhibitor and supplemented with 300 μM of 1,2-dioleoylglycerol. The hDGAT1 reaction was initiated following an addition of 16.8 nCi of [14C]-oleoyl CoA. The reaction was terminated after 30 minutes of incubation at 37° C. using 300 μl alkaline ethanol stop solution mix (AESSM) [12.5% of 100% non-denatured ethanol, 10% deionized water, 2.5% NaOH, and 75% stop solution (78.4% isopropanol, 19.6% n-heptane, 2% deionized water)]. The ^14C triglyceride formed in this reaction was extracted using 600 μl of heptane. 250 μl of this extracted heptane was added to scintillation fluid and subjected to radioactivity measurement.

[2] = target: T1, recombinant human DGAT1 (hDGAT1); test: Membrane-based recombinant hDGAT1 inhibitory activity using LCMS method (Method A); type: biochemical; settings: Sf9 membranes expressing hDGAT1
[3] = target: T2, hDGAT1 (Homo sapiens, UniProt O75907); test: Cell based hDGAT1 inhibitory activity in HEK293H cells (13C-oleic acid to triolein, LC-MS)
T2 construct: endogenous in cells; host or cells: HEK293H cells
T2 sequence (O75907 1-488): T1 sequence (O75907 1-488)
Method: Measurement of Cell Based hDGAT1 Inhibitory Activity:
HEK293H cells were seeded in a 96-well poly-D-lysine plate at a density of 80000 cells per well. Following day, cells were washed with assay buffer-DMEM high glucose supplemented with 25 mM Hepes (pH7.5) carrying 0.25% fatty acid-free bovine serum. The cells were starved in assay buffer at 37° C./5% CO2 followed by removal of media and treatment with appropriate concentrations of the test compound at a final concentration of 0.2% DMSO for 20 min. 13C-Oleic acid pre-complexed with BSA (300 uM) was added and cells were incubated further at […]/5% CO2 for 120 min. The supernatant was removed and the cells were allowed to air dry briefly. The extraction solvent (90% isopropyl alcohol and 10% tetrahydrofuran with 20 nM of the internal standard [1,3-di-heptadecanoyl-2-(10Z-heptadecanoyl)-sn-glycerol-d5) was added to the cells, and allowed to shake at room temperature for 15 min. The extract was then transferred to glass vials for LC-MS analysis. An Applied Biosystems API3200 LC/MS system interfaced with a triplequadrupole mass spectrophotometer through a Turbo ion spray source was employed for the LC separation of the analytes using a Hi-Purity ADVANCE column eluted with 10 mM ammonium formate in IPA-H2O (80:20) at a flow rate of 0.4 mL/min. A characteristic in-source fragment ion m/z 639.7 formed from the precursor ion ^13C-54-triolein (m/z 956.8, ammonium adduct) at a collision energy of 30 and declustering potential 70 was monitored. IC50 values of the compounds were determined based on percent inhibition calculated on the basis of area ratio of product (TG) and internal standard (IS).

O=C(O)CC1CC2(CCN(c3ccc(NC(=O)c4nnc(Nc5ccccc5F)o4)cc3)CC2)C1 [Example B38, 2-[7-[4-[[5-(2-fluoroanilino)-1,3,4-oxadiazole-2-carbonyl]amino]phenyl]-7-azaspiro[3.5]nonan-2-yl]acetic acid]
IC50 [1]: 50 nM

O=C(Nc1ccc(N2CCC3(CC2)CC(C(=O)O)C3)nc1)c1nnc(Nc2cccc(C(F)(F)F)c2)o1 [Example B37, 7-[5-[[5-[3-(trifluoromethyl)anilino]-1,3,4-oxadiazole-2-carbonyl]amino]-2-pyridyl]-7-azaspiro[3.5]nonane-2-carboxylic acid]
IC50 [1]: 22 nM

O=C(O)CC1CC2(CCN(c3ccc(NC(=O)c4nnc(Nc5ccc(F)c(F)c5)o4)cn3)CC2)C1 [Example B32, 2-[7-[5-[[5-(3,4-difluoroanilino)-1,3,4-oxadiazole-2-carbonyl]amino]-2-pyridyl]-7-azaspiro[3.5]nonan-2-yl]acetic acid]
IC50 [1]: 6.9 nM

O=C(O)CC1CC2(CCN(c3ccc(NC(=O)c4nnc(Nc5ccc(F)c(F)c5)o4)cc3)CC2)C1 [Example B40, 2-[7-[4-[[5-(3,4-difluoroanilino)-1,3,4-oxadiazole-2-carbonyl]amino]phenyl]-7-azaspiro[3.5]nonan-2-yl]acetic acid]
IC50 [1]: 20 nM

O=C(Nc1ccc(N2CCC3(CC2)CC(C(=O)O)C3)nc1)c1nnc(Nc2ccccc2)o1 [Example B34, 7-[5-[(5-anilino-1,3,4-oxadiazole-2-carbonyl)amino]-2-pyridyl]-7-azaspiro[3.5]nonane-2-carboxylic acid]
IC50 [1]: 24 nM

O=C(O)CC1CC2(CCN(c3ccc(NC(=O)c4nnc(Nc5ccccc5F)o4)cn3)CC2)C1 [Example B33, 2-[7-[5-[[5-(2-fluoroanilino)-1,3,4-oxadiazole-2-carbonyl]amino]-2-pyridyl]-7-azaspiro[3.5]nonan-2-yl]acetic acid]
IC50 [1]: 26 nM

O=C(Nc1ccc(N2CCC3(CC2)CC(C(=O)O)C3)nc1)c1nnc(Nc2ccc(Cl)cc2)o1 [Example B36, 7-[5-[[5-(4-chloroanilino)-1,3,4-oxadiazole-2-carbonyl]amino]-2-pyridyl]-7-azaspiro[3.5]nonane-2-carboxylic acid]
IC50 [1]: 25 nM

O=C(O)CC1CC2(CCN(c3ccc(NC(=O)c4nnc(Nc5ccccc5)o4)cc3)CC2)C1 [Example B39, 2-[7-[4-[(5-anilino-1,3,4-oxadiazole-2-carbonyl)amino]phenyl]-7-azaspiro[3.5]nonan-2-yl]acetic acid]
IC50 [1]: 47 nM

O=C(Nc1ccc([C@H]2CC[C@@]3(CC2)CC3C(=O)O)nc1)c1nnc(Nc2ccc(F)c(F)c2)o1 (stereo partly drawn) [Example B25, Cis-6-[5-[[5-(3,4-difluoroanilino)-1,3,4-oxadiazole-2-carbonyl]amino]-2-pyridyl] spiro [2.5] octane-2-carboxylic acid]
IC50 [2]: 4.5 nM
IC50 [3]: 20 nM

O=C(O)CC1CCC2(CC1)CCC(c1ccc(NC(=O)c3nnc(Nc4ccc(F)c(F)c4)o3)cn1)CC2 (centres unmarked) [Example B1, 2-[9-[5-[[5-(3,4-difluoroanilino)-1,3,4-oxadiazole-2-carbonyl]amino]-2-pyridyl]spiro[5.5]undecan-3-yl]acetic acid]
IC50 [2]: 22 nM
IC50 [3]: 17.6 nM

Nc1ncnc2c1C(=O)N(c1ccc(C3CCC4(CCC(CC(=O)O)CC4)CC3)cc1)CCO2 (centres unmarked) [Example H3, 2-[9-[4-(4-amino-5-oxo-7,8-dihydropyrimido[5,4-f][1,4]oxazepin-6-yl)phenyl]spiro[5.5]undecan-3-yl]acetic acid]
IC50 [2]: 42 nM
IC50 [3]: 15 nM

O=C(Nc1ccc(N2CCC3(CC2)CC(C(=O)O)C3)nc1)c1nnc(Nc2cccc(F)c2)o1 [Example B35, 7-[5-[[5-(3-fluoroanilino)-1,3,4-oxadiazole-2-carbonyl]amino]-2-pyridyl]-7-azaspiro[3.5]nonane-2-carboxylic acid]
IC50 [1]: 19 nM

O=C(O)CC1CCC2(CC1)CCN(c1ccc(NC(=O)c3nnc(Nc4ccc(F)c(F)c4)o3)cn1)CC2 [Example B7, 2-[9-[5-[[5-(3,4-difluoroanilino)-1,3,4-oxadiazole-2-carbonyl]amino]-2-pyridyl]-9-azaspiro [5.5]undecan-3-yl] acetic acid]
IC50 [2]: 23 nM
IC50 [3]: 10 nM

Reference: patent US9550793B2, “Spirocyclic compounds, compositions and medicinal applications thereof” (Advinus Therapeutics Limited, priority 2012, dated 2017)
